Experimental data as given in US4980372A, “Benzoylaminophenoxybutanoic acid derivatives” (Ono Pharmaceutical Co., Ltd., priority 1987, dated 1990).

What follows are compounds tested against 5α-reductase (assay: 5α-reductase inhibitory activity in vitro). Details: male rats' prostate enzyme, [4-C14]-testosterone, NADPH, 60 mins at 37° C., pH 7.4.
Type: biochemical, rat
Procedure: 5α-reductase inhibitory activity in vitro
Inhibitory activity on 5α-reductase in vitro was measured by the following test system.
The test was carried out by making reference to the method of J. Shimazaki et al [See Endocrinical. Japon., 18, 179 (1971)].
Male rats' prostate (4 g) was homogenized with its triple volume of 0.1M HEPES buffer (pH 7.4) including 0.25M cane sugar, and was centrifuged at 3000 r.p.m. for 10 mins.
The precipitate was suspended into the buffer solution described above (10 ml), and the suspension was centrifuged at 3000 r.p.m. for 5 mins. The resulting precipitated was suspended in the buffer solution (3 ml) described above and was used as a sauce of enzyme.
A reaction mixture (total volume 0.1 ml) of [4-C^14 ]-testosterone (1.5 n mol, 1.5×10^5 cpm) NADPH (0.5 μmol) enzyme solution (0.03 ml) described above and several kinds of concentration of the compounds in the present invention was incubated for 60 mins at 37° C. Enzyme reaction was quenched by addition of a mixture (1.0 ml) of diethyl ether, petroleum ether and acetic acid (80:20:1), and the mixture was centrifuged at 3000 r.p.m. for 5 mins. The supernatant (200 μl) was spotted on silica gel thin layer plate. The spot on the plate was developed with a mixture of chloroform, methanol and acetic acid (99:0.8:0.2). Radioactivity of dihydrotestosterone generated on the plate was measured by TLC scanner of radio-autography and inhibitory ratio was calculated.

In order of rising IC50:
1. Cc1c(OC(C)c2ccc(CC(C)C)cc2)ccc(C(=O)Nc2ccccc2OCCCC(=O)O)c1C (centres unmarked) [2(o), 4-[2-[4-[1-(4-isobutylphenyl)ethoxy]-2,3-dimethylbenzoylamino]phenoxy]butanoic acid]  5 nM
2. CCCc1ccc(C(Oc2ccc(C(=O)Nc3ccccc3OCCCC(=O)O)c(C)c2C)c2ccc(CCC)cc2)cc1 [2(p), 4-[2-[4-[bis(4-propylphenyl)methoxy]-2,3-dimethylbenzoylamino]phenoxy]butanoic acid]  11 nM
3. CC(C)Cc1ccc(COc2ccc(C(=O)Nc3ccccc3OCCCC(=O)O)c3c2CCCC3)cc1 [2(z), 4-[2-[4-(4-isobutylbenzyloxy)-5,6,7,8-tetrahydronaphthalene-1-carbonylamino]phenoxy]butanoic acid]  50 nM
4. Cc1c(OC(C)c2ccc(CC(C)C)cc2)ccc(C(=O)Nc2ccccc2SCCCC(=O)O)c1C (centres unmarked) [2(dd), 4-[2-[4-[1-(4-isobutylphenyl)ethoxy]-2,3-dimethylbenzoylamino]phenylthio]butanoic acid]  120 nM
5. Cc1c(OCc2ccc(CC(C)C)cc2)ccc(C(=O)Nc2ccccc2OCCCC(=O)O)c1C [Example 2, 4-[2-[4-(4 isobutylbenzyloxy)-2 3-dimethylbenzoylamino]phenoxy]butanoic acid]  120 nM
6. Cc1c(OC(c2ccccc2)c2ccccc2)ccc(C(=O)Nc2ccccc2OCCCC(=O)O)c1C [2(q)]  200 nM
7. Cc1c(OCc2ccc(C(C)C)cc2)ccc(C(=O)Nc2ccccc2OCCCC(=O)O)c1C [2(h), 4-[2-[4-(4-isopropylbenzyloxy)-2,3-dimethylbenzoylamino]phenoxy]butanoic acid]  260 nM
8. CCc1ccc(COc2ccc(C(=O)Nc3ccccc3OCCCC(=O)O)c(C)c2C)cc1 [2(f), 4-[2-[4-(4-ethybenzyloxy)-2,3-dimethylbenzoylamino]phenoxy]butanoic acid]  270 nM
9. CCCc1ccc(COc2ccc(C(=O)Nc3ccccc3OCCCC(=O)O)c(C)c2C)cc1 [2(g), 4-[2-[4-(4-propylbenzyloxy)-2,3-dimethylbenzoylamino]phenoxy]butanoic acid]  340 nM
10. Cc1ccccc1COc1ccc(C(=O)Nc2ccccc2OCCCC(=O)O)c(C)c1C [2(b), 4-[2-[4-(2-methylbenzyloxy)-2,3-dimethylbenzoylamino]phenoxy]butanoic acid]  380 nM
11. CCCc1ccc(COc2ccc(C(=O)Nc3ccccc3SCCCC(=O)O)c(C)c2C)cc1 [2(cc), 4-[2-[4-(4-propylbenzyloxy)-2,3-dimethylbenzoylamino)phenylthio]butanoic acid]  380 nM
12. CC(C)Cc1ccc(COc2ccc(C(=O)Nc3ccccc3OCCCC(=O)O)c3c2CCC3)cc1 [2(y), 4-[2-(7-(4-isobutylbenzyloxy)indane-4-carbonylamino]phenoxy]butanoic acid]  410 nM
13. CC(C)Cc1ccc(COc2ccc(C(=O)Nc3ccccc3SCCCC(=O)O)c3c2CCCC3)cc1 [2(bb), 4-[2-[4-(4-isobutylbenzyloxy)-5,6,7,8-tetrahydronaphthalene-1-carbonylamino]phenylthio]butanoic acid]  420 nM
14. CC(C)Cc1ccc(COc2ccc(C(=O)Nc3ccccc3OCCCC(=O)O)c3ccccc23)cc1 [2(aa), 4-[2-[4-[4-isobutylbenzyloxy)naphthalene-1-carbonylamino]phenoxy]butanoic acid]  520 nM
15. CCCc1ccc(COc2ccc(C(=O)Nc3ccccc3[S+]([O-])CCCC(=O)O)c(C)c2C)cc1 (centres unmarked) [Example 3, 4-[2-[4-(4-propylbenzyloxy)-2,3-dimethylbenzoylamino]phenylsulfinyl]butanoic acid]  700 nM
16. Cc1c(OCCCCc2ccccc2)ccc(C(=O)Nc2ccccc2OCCCC(=O)O)c1C [2(m), 4-[2-[4-(4-phenylbutoxy)-2,3-dimethylbenzoylamino]phenoxy]butanoic acid]  750 nM
17. Cc1c(OCCCCCc2ccccc2)ccc(C(=O)Nc2ccccc2OCCCC(=O)O)c1C [2(n), 4-[2-[4-(5-phenylpentyloxy)-2,3-dimethylbenzoylamino]phenoxy]butanoic acid]  950 nM
18. Cc1ccc(COc2ccc(C(=O)Nc3ccccc3OCCCC(=O)O)c(C)c2C)cc1 [2(d), 4-[2-[4-(4-methylbenzyloxy)-2,3-dimethylbenzoylamino]phenoxy]butanoic acid]  980 nM
19. Cc1c(OCCCc2ccccc2)ccc(C(=O)Nc2ccccc2OCCCC(=O)O)c1C [2(l)]  1000 nM
20. Cc1cccc(COc2ccc(C(=O)Nc3ccccc3OCCCC(=O)O)c(C)c2C)c1 [2(c), 4-[2-[4-(3-methylbenzyloxy)-2,3-dimethylbenzoylamino]phenoxy]butanoic acid]  1300 nM
21. Cc1cccc(C)c1COc1ccc(C(=O)Nc2ccccc2OCCCC(=O)O)c(C)c1C [2(e), 4-[2-[4-(2,6-dimethylbenzyloxy)-2,3-dimethylbenzoylamino]phenoxy]butanoic acid]  1400 nM
22. Cc1c(OCc2ccc(Cl)cc2)ccc(C(=O)Nc2ccccc2OCCCC(=O)O)c1C [2(i), 4-[2-[4-(4-chlorobenzyloxy)-2,3-dimethylbenzoylamino]phenoxy]butanoic acid]  2000 nM
23. Cc1c(OCc2ccccc2)ccc(C(=O)Nc2ccccc2OCCCC(=O)O)c1C [2(a), 4-[2-(4-benzyloxy-2,3-dimethylbenzoylamino)phenoxy]butanoic acid]  2100 nM
24. Cc1c(OCc2ccc(CC3CCC3)cc2)ccc(C(=O)Nc2ccccc2OCCCC(=O)O)c1C [2(j), 4-[2-[4-(4-cyclobutylmethylbenzyloxy)-2,3-dimethylbenzoylamino]phenoxy]butanoic]  2500 nM
25. Cc1c(OCCc2ccccc2)ccc(C(=O)Nc2ccccc2OCCCC(=O)O)c1C [2(k), 4-[2-[4-(2-phenylethoxy)-2,3-dimethylbenzoylamino]phenoxy]butanoic acid]  2600 nM
26. CC(C)Cc1ccc(COc2ccc(C(=O)Nc3ccccc3OCCCC(=O)O)c(Cl)c2Cl)cc1 [2(x), 4-[2-[4-(4-isobutylbenzyloxy)-2,3-dichlorobenzoylamino]phenoxy]butanoic acid]  2800 nM
